Test [1] has as its system stress-related diarrhea. Particulars: animal models; J. Pharmacol. Exp. Ther. 261, 297 (1992); cited from earlier work.
Test [2] deals with T1, Intestinal 5-HT3 receptor (Cavia porcellus, UniProt O70212).
T1 sequence (O70212 24-490 limits assumed): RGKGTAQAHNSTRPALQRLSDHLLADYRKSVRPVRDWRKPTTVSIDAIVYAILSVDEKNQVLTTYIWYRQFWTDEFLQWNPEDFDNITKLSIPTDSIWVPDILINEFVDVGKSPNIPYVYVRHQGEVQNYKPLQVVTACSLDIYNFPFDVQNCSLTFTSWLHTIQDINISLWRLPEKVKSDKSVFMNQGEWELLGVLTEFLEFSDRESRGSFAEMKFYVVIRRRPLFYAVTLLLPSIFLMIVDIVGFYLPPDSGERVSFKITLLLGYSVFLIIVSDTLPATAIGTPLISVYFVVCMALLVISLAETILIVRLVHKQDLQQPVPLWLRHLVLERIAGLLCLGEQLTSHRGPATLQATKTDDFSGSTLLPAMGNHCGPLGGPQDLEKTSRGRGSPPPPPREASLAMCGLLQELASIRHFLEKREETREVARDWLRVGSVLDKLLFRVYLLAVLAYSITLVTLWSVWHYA
Nature of the test: Intestinal 5-HT3 receptor antagonism (isolated distal colon, 2-methylserotonin-induced contraction). It is filed as cell-based, Hartley guinea pigs. As to conditions: M (molar concentration of antagonist), isolated distal colon, 2-methylserotonin contraction.
Procedure: The test was conducted following the method of Miyata, et al. (The Journal of Pharmacology and Experimental Therapeutics Vol.259, No:1, 15 (1991)).
Male Hartley guinea pigs with a body weight of 300-400 g were bled to death, the distal colon (3-10 cm from the anus) was isolated and suspended in a Magnus tube filled with Krebs solution aerated with a mixed gas (95% O2, 5% CO2), and subjected to a tensile load of 1 g. After constant contraction by cumulative addition of 2-methylserotonin (10^-6 -10^-4 M) was obtained, the test agent was added and the pA2 value of the test agent was calculated based on its inhibiting action on the initial value.
The value (pA2 value) is defined as the negative logarithm (-logM) of the molar concentration (M) of the antagonist required to reduce the effect of serotonin at a concentration of 2 times the 2-methylserotonin concentration (EC50) necessary to induce half of the maximum contraction reaction, to an effect induced by an EC50 of serotonin.

Test [3] concerns 5-HT3 receptors in the upper intestine. Nature of the test: Antagonism against 5-HT-induced intestinal secretion (jejunal loop). The format is in vivo, wister rats. As to conditions: caudal vein, 15 min before serotonin. The procedure:
Antagonism against 5-HT-induced intestinal secretion:
Male wister rats (8-11 weeks old) were anesthetized with urethane, and the abdomen was opened a polyethylene catheter was placed in the jejunum 5 cm distal to the duodenojejunal flexure and fixed by ligation. The second ligation was made at a distal point of 20 cm to create a jejunal loop. Two ml of physiological saline was injected into this loop and initiated continuous injection of physiological saline (0.1 ml/min) or 5-HT (3 μg/0.1 ml/kg/min, serotonin treated group) into the mesenteric artery through the mesenteric artery gastric branch, and after 30 minutes the jejunal loop was isolated, the residual fluid amount was measured, and the net fluid transfer per gram of tissue weight was calculated. The net fluid transfer was expressed as the fluid amount (weight) change in 30 minutes per jejunal tissue weight (g/30 min/g). A "+" was assigned when the fluid amount increased compared with 2 ml of physiological saline injected into the loop, and "-" when it decreased

Test [4] has as its system restrained stress-induced diarrhea. Nature of the test: Inhibiting effect on restrained stress-induced diarrhea (oral administration). The format is in vivo, Wistar rats. Particulars: 1 hour before stress. As to the method:
Inhibiting effect on restrained stress-induced diarrhea (oral administration): This test was conducted following the method of Miyata, et al. […] Nine-week-old male Wistar rats fasted overnight were placed in a stress cage and their feces produced in 5 hours were observed. Of 15 rats, 14 developed diarrhea. The inhibiting effect on diarrhea was measured by oral administration of the test compounds one hour prior to placement in the stress cage.

Test [5] relates to restraint stress-induced diarrhea. Nature of the test: Inhibiting effect on restraint stress-induced diarrhea (intraabdominal administration). It is filed as in vivo, Wistar rats. As to conditions: 30 μg/kg, 30 min before stress. The procedure:
Inhibiting effect on restraint stress-induced diarrhea (intraabdominal administration): This test was conducted in the same manner as Test 3. Nine- to ten-week-oldmale Wistar rats fasted overnight were placed in a stress case and their feces produced in 5 hours were observed. Of 15 rats, 14 developed diarrhea. The inhibiting effect on diarrhea was measured by intraabdominal administration of a test compound 30 minutes prior to placement in the stress cage.

Test [6] deals with duodenal extension reflex. Kind of test: Inhibiting effect on duodenal extension reflex. As to conditions: intravenous. It is filed as in vivo, Wistar rats. From the text: Inhibiting effect on duodenal extension reflex: Unfasted male Wistar rats with a body weight of 300-390 g were opened at the abdomen under urethane anesthesia, and ligated at 2 locations, the gastric pyloric region and 3-4 cm directly under it, to create a duodenal loop. […] The beaker was raised at once to create a internal loop pressure of 75 cm H2, and the depressor reflex and effect of the test agent administration were observed. […] The test agent was then administrated intravenously, and at 5, 15 and 25 minutes after administration an extension stimulus was applied, the depressor reflex was observed, and the differences were expressed as percentages with respect to the initial value, to give the inhibition rates.

For test [7], the target named is T2, 5-HT3 receptors in the heart (Rattus norvegicus, UniProt P35563).
T2 construct: from tissue; host or cells: living anesthetized male SD rats (in vivo)
T2 sequence (P35563 24-483): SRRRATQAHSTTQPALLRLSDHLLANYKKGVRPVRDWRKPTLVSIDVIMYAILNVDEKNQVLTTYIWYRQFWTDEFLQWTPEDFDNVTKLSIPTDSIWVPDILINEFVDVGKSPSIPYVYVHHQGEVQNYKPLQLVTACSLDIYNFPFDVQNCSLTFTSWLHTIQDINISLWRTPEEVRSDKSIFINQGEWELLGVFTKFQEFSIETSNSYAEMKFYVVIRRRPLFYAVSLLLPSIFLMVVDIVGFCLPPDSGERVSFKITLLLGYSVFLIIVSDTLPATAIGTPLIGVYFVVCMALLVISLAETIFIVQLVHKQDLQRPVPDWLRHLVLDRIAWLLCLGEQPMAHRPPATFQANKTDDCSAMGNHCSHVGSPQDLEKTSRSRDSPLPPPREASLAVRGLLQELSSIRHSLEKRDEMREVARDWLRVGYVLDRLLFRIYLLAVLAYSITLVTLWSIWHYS
Nature of the test: Antagonism against Von Bezold-Jarisch reflex (BJ reflex). It is filed as in vivo, SD rats. Particulars: iv, 5 min before serotonin 30 μg/kg, read-out: ID50 (the source's name). The procedure:
Antagonism against Von Bezold-Jarisch reflex (BJ reflex):
The pulse was determined by measuring the electrocardiogram R waves (secondary induction) with an instantaneous pulse rate meter.

In test [8] the test system is cisplatin-induced vomiting. Nature of the test: Inhibiting effect on cisplatin-induced vomiting. It is filed as in vivo, ferrets. As to conditions: oral, 1 hour before cisplatin; for No. of retching / No. of vomiting animals/No. of animals used / No. of vomitings: 6 hours. From the text:
Inhibiting effect on cisplatin-induced vomiting:
Vomiting was induced in ferrets by administration of cisplatin. The inhibiting effect on this vomiting was observed. […] The test agents were orally administered one hour prior to cisplatin administration. […]

Test [9] concerns gastric emptying. Kind of test: Accelerating effect on gastric emptying (cisplatin-reduced). As to conditions: oral, 30 min before cisplatin 10 mg/kg. The format is in vivo, SD rats. The procedure: Accelerating effect on gastric emptying
Seven-week-old male SD rats which had been fasted for 24 hours were used. The effect on gastric emptying was studied in rats with reduced gastric emptying due to cisplatin. The rats were intragastrically administered the test feed (1.5% aqueous CMC solution containing 50 mg/100 ml phenol red) at 1.5 ml/rat, and after 15 minutes the stomachs were dissected, the residual amount of phenol red in the stomach was measured, in order to determine the gastric emptying in normal animals. A cisplatin-induced reduction in gastric emptying was measured by intraabdominal administration of cisplatin (10 mg/kg) 30 minutes prior to supplying the test feed. The test compound was also administered orally 30 minutes prior to the cisplatin administration to study the accelerating effect of the test compound on gastric emptying.

The test system of test [10] is vomiting. Particulars: The Japanese Journal of Pharmacology 57, 387-395 (1991); cited from earlier work.

Where a name gives a salt, the structure may show the parent alone. Where only a bound is given, the exact number is not on record here.

For `CN1C2CCCC1CC(NC(=O)c1nn(C)c3ccccc13)C2` (stereo not drawn) [Granisetron, N-(endo-9-methyl-9-azabicyclo [3,3,1]nona-3-yl)-l-methyl-indazol-3-carboxamide hydrochloride], the “suppression of stress-related diarrhea (in words)” value (“suppression” below) in [1] is “suppress stress-related diarrhea”.

As for `Cc1nccn1CC1CCc2c(c3ccccc3n2C)C1=O` (centres unmarked) [Ondansetron, 1,2,3,4-tetrahydro-9-methyl-3-[(2-methyl-1H-imidazol-1-yl)methyl]-4H-carbazol-4-one-hydrochloride dihydrate], the “suppression” value in test [1] is given as “suppress stress-related diarrhea”.

Consider `Cl.Cn1cc(C(=O)[C@@H]2CCc3nc[nH]c3C2)c2ccccc21` [YM-060, (R)-(-)-5-[(1-methylindol-3-yl)carbonyl]-4,5,6,7-tetrahydrobenzimidazole hydrochloride, reference compound], for which, in test [2], the Kb (usually the affinity of an antagonist, worked out from how it opposes an agonist) is 4.5 nM. For the same compound, the “net fluid transfer in jejunal loop” value in [3] (1.0 μg/kg) was -0.49 ± 0.06 g/30 min/g tissue weight. The “net fluid transfer in jejunal loop” value in test [3] (10 μg/kg) is reported as -0.74 ± 0.09 g/30 min/g tissue weight. Moreover, in [4] (30 μg/kg), the Inhibition rate was found to be 60% and the “No. of animals with diarrhea/No. of animals used” value was 4/10. Moreover, in test [4] (100 μg/kg), the Inhibition rate amounted to 75% and the “No. of animals with diarrhea/No. of animals used” value was 2/8. In test [5], the Inhibition rate came to 50% and the “No. of animals with diarrhea/No. of animals used” value is given as 7/14. Moreover, in [6] (1 μg/kg), the “Inhibition rate, 5-min value” is given as -27.9%; the “Inhibition rate, 15-min value” is on record as -30.8%; the “Inhibition rate, 25-min value” is -14.8%. Further, in test [6] (10 μg/kg), the “Inhibition rate, 5-min value” amounted to 16.3%; the “Inhibition rate, 15-min value” came to 6.3%; the “Inhibition rate, 25-min value” is recorded as 7.9%. In [7], the ED50 was 8.6e-05 µmol/kg. In test [8] (0.3 μg), the “Latency* (time to initial retching)” value was determined as 127.0 min, the “Latency** (time to initial vomiting)” value is 134.0 min, the No. of retching is 126.0 and the “No. of vomiting animals/No. of animals used” value is on record as 2/2. In [8] (0.3 μg), this compound yielded a No. of vomitings of 6.5. Moreover, in test [8] (1.0 μg), the “Latency* (time to initial retching)” value was above 272.2 min, the “Latency** (time to initial vomiting)” value was above 303.0 min, the No. of retching was determined as 41.6 and the “No. of vomiting animals/No. of animals used” value is on record as 3/5. This compound also registered a No. of vomitings in test [8] (1.0 μg) of 1.2. For the same compound, the Gastric evacuation in [9] (0.3 μg/kg) is listed as 51.8%. In addition, in test [9] (1.0 μg/kg), the Gastric evacuation is listed as 74.2%. Moreover, the “suppression” value in test [1] was “suppress stress-related diarrhea in animal models, with the effect of YM-060 being the strongest”. Moreover, the “antiemetic effect (in words)” value in test [10] is “powerful antiemetic effect”.

The values above are taken from patent publication US5677326A, “Indoline compound and 5-HT3 receptor antagonist containing the same as active ingredient” (Tokyo Tanabe Company Limited, priority 1993, dated 1997).
